# Assays:
# E. coli [1] = experiment: Minimum bactericidal concentration (MBC) determination by agar colony formation; type: cell-based, Escherichia coli (E. coli, K12); conditions: for MBC: Escherichia coli, 0.75 h, 45 min treatment
# Method: (§1) Azo-QPS-C16 was effective on both […] bacteria. The ability of bacteria to proliferate after exposure to Azo-QPS-C16 was characterized by adding growth medium and measuring the optical density (OD) at 600 nm every 15 minutes in pH 4.1, 5.8, and 7.9 buffer. […] However, exposure at pH 7.9 required a much higher concentration (40 μg/mL) to inhibit cell growth. […] The pH dependence of bactericidal activity of Azo-QPS-C16 in terms of minimum bactericidal concentration (MBC) was evaluated by inoculating cultures onto a Lysogeny Broth (LB) agar plate after treating the cells with a twofold dilution series of Azo-QPS-C16.
# (§2) Bacterial strains and growth conditions. Streptococcus mutans (S. mutans, UA159) and Escherichia coli (E. coli, K12) were purchased from ATCC (American Type Culture Collection, Manassas, Va., USA). Todd Hewitt Broth (THB), and Lysogeny Broth (LB) powder and agar were purchased from BD (Becton, Dickinson and Company, Franklin Lakes, N.J., USA). Planktonic cultures were inoculated from 25% (by volume) glycerol frozen stocks stored at −80° C. E. coli cultures were grown in LB at 37° C. in a shaker-incubator. S. mutans cultures were grown in THB at 37° C. with 5% (by volume) CO2 overnight.
# (§3) Bacterial growth curves. Overnight cultures of E. coli and S. mutans were diluted directly into buffers with different pH values (100 mmol/L, pH 4.1 sodium acetate buffer, pH 5.8 sodium phosphate buffer, and pH 7.9 sodium phosphate buffer) to an optical density at 600 nm (OD600) of approximately 0.001.
# (§4) In a 96-well plate, 2 μL of Azo-QPS-C16 at various concentrations in dimethyl sulfoxide (DMSO) were added to 98 μL of bacteria suspension per well for a final concentration ranging from a 2-fold dilution series between 40 to 1.25 μg/mL of Azo-QPS-C16. After 45 minutes of treatment at room temperature, 10 μL from each well was transferred to a new 96-well plate already containing 100 μL growth media per well to measure the growth curves. E. coli were cultured at 37° C., and the OD600 of each well was measured by a Tecan Spark microplate reader (Männedorf, Switzerland) every 15 minutes for up to 19 hours, with 30 seconds shaking before each measurement. S. mutans were grown at 37° C. with 5% CO2, and the OD600 of each well was measured periodically using a Molecular Devices (Sunnyvale, Calif.) SpectraMax M5 microplate reader. All experiments were conducted in triplicate and repeated at least three times on different days.
# (§5) Minimum bactericidal concentration (MBC) determination. MBC values were determined by agar colony formation. […] 5 μL of the suspended cells from each well were spotted onto an agar plate and incubated for 48 hours to allow colony formation, and the presence or absence of bacterial growth was determined by naked eye. […]
# S. mutans = experiment: as above; type: cell-based, Streptococcus mutans (S. mutans, UA159); conditions: for MBC: Streptococcus mutans, 0.75 h, 45 min treatment
# Method: as §1, §2, §3, §4, §5
# E. coli [2] = experiment: Bacterial growth curves (OD600) after exposure in buffer; type: cell-based, Escherichia coli (E. coli, K12)
# Method: as §1
# Bacterial strains and growth conditions. […]
# as §4, with “After 45 minutes of treatment at room temperature, 10 μL from each well was transferred to a new 96-well plate already containing 100 μL growth media per well to measure the growth curves.” left out, “All experiments were conducted in triplicate and repeated at least three times on different days.” left out
# pKa = type: physicochemical
# [3] = Dynamic light scattering (DLS) of pH-dependent assembly; type: physicochemical
# Method: Particles with an average hydrodynamic diameter of 51±19 nm formed in mildly basic conditions, occurring simultaneously with the appearance of the absorbance peak at 554 nm. […] One cycle corresponds to the addition of a base and an acid. In base and acid, respectively, the absorbance at 554 nm increased and then decreased, and the particles formed and disassembled.
# Dynamic light scattering (DLS) was performed using a Nicomp 380 ZLS DLS system (Particle Sizing Systems Inc., Santa Barbara, Calif.). Samples were contained in disposable glass culture tubes. Prior to sample loading, the tubes were blown with nitrogen gas and filled with 0.4 mL of a dye sample. The tubes were sealed using parafilm and then centrifuged at 14,000 rpm (19,000 g) for 5 minutes to separate larger particles. Samples were placed in the instrument and allowed to attain thermal equilibrium. An autocorrelation function was acquired for 3 minutes at 173° scattering angle. A Laplace inversion-based Nicomp routine was used to find the distribution of decay rates. The decay rates are linked to the effective sphere hydrodynamic diameters by the appropriate equations. The size distribution is reported as a discrete set of diameter bins and corresponding intensity weighted fractions as probabilities assigned to diameter bins.
# Solubility in water = type: physicochemical
structure (smiles),measurement,setting,value
"C=C(C)C(=O)Oc1ccc(/N=N/c2cc[n+](CCCCCCCCCCCCCCCC)cc2)cc1.[Br-] [Azo-QPS-C16, (E)-1-hexadecyl-4-((4-(methacryloyloxy)phenyl)diazenyl)-pyridinium bromide]",MBC,E. coli [1]; pH 4.1 buffer,2.5 µg/mL
same,MBC,E. coli [1]; pH 5.8 buffer,10 µg/mL
same,MBC,E. coli [1]; pH 7.9 buffer,40 µg/mL
same,Difference in MBC between pH 4.1 and pH 7.9,E. coli [1]; more effective at pH 4.1,16 fold
same,MBC,S. mutans; pH 4.1 buffer,1.25 µg/mL
same,MBC,S. mutans; pH 5.8 buffer,5 µg/mL
same,MBC,S. mutans; pH 7.9 buffer,10 µg/mL
same,"Difference in MBC, acidic vs mildly basic conditions (pH 4.1 vs pH 7.9)",S. mutans; more effective in acidic conditions,8 fold
same,Concentration that fully inhibited E. coli growth,"E. coli [2]; exposure at pH 4.1, growth followed up to 19 hours",2.5 µg/mL
same,Concentration required to inhibit cell growth,E. coli [2]; exposure at pH 7.9,40 µg/mL
same,pKa,pKa,5.3
same,Average hydrodynamic diameter of particles,[3]; mildly basic conditions,51±19 nm
same,Particle formation,[3]; pH 4.1 buffer,No particles were found
same,Solubility in water,Solubility in water,limited solubility in water
